In publication PMC9863266, “Preclinical Studies and Drug Combination of Low-Cost Molecules for Chagas Disease” (Pharmaceuticals, 2022):
Values joined by “and” are separate entries in the source; they are usually repeats but may differ in a detail not shown here. Equal values may be shown once.

Tests used:
[1] = tested on: Leishmania spp (cutaneous) promastigotes; design: method as in earlier work; details: read-out: In vitro anti-Leishmania spp (cutaneous) activity (IC50); cited from earlier work
zebrafish embryos = tested on: zebrafish embryos
Description: 1-Phenyl-2-thiourea (0.003%) was added to system water to inhibit melanogenesis in embryos destined for microscopic imaging. The eggs were collected, and the unfertilized ones were discarded. […] At this stage, the membrane that protects the embryo (chorion) was manually removed. This was completed on a 1 % agarose plate and medium for embryos. Two 96-well plates with a curved bottom were prepared. […] One embryo was placed per […], and it was verified that it had not suffered any injury when it was transferred. After preparing the plates, the embryos were evaluated. For this, they were placed in a humid chamber to avoid the evaporation of the compounds and were incubated at 28 °C. At 24 h, the first observation was made and half of the medium in each well was replaced to ensure that the concentrations remained constant during the 96 h of exposure. To do this, 100 µL of medium was removed from each well and replaced with 100 µL of fresh medium. […] In addition, any other type of abnormality that may indicate teratogenicity was recorded. The same was performed every 24 h until 96 h of exposure where the test was considered finished. The embryos were sacrificed in 70% ethanol. […] The curve obtained was fitted to a sigmoid using the OriginLab 8.5 program.

T. brucei = tested on: T. brucei; design: method as in earlier work; details: read-out: In vitro anti-T. brucei activity (IC50); cited from earlier work
CD1 and Balb/c mice = experiment: Acute oral toxicity in mice (Up and Down test); assay type: in vivo; details: 14 days
Description: (§1) After verifying, through the studies indicated above, the low in vitro and in vivo toxicity and the potent trypanosomicidal activity of these molecules and following the steps of preclinical drug development, the acute oral toxicity in vivo in mice was tested. For this study, the compounds were administered orally in the same microemulsion that was used in the pharmacological study on the acute model of Chagas disease. The initial number of animals is defined by the software AOT425 Stat and also depends on if there are LD50 of compounds with similar structures. Variable numbers of animals could be used if there is some toxicity observed during the first administrations. […]. In this case, one of the animals died 10 days post-administration. The LD50 calculated by the statistical program from these experiments was 2000 mg/kg b.w., the maximal dose being used for oral administration. As a result, compound 793 has low acute toxicity in these conditions. For compound 1019, a maximum dose of 2000 mg/kg b.w. was started orally in five mice until one of the ends of the trial criteria was met. […] Throughout the test, during the 14 days, the mice were evaluated by the Irwin test and their masses were recorded. […]

[2] = Acute oral toxicity in mice (Up and Down test); assay type: in vivo; details: CD1 and Balb/c, mouse, in vivo; oral, microemulsion
Description: as §1

[3] = tested on: Salmonella typhimurium strains TA98, T100, T102, TA1535, and TA1537; experiment: Ames test (mutagenicity); assay type: cell-based; details: for Ames test TA98 revertant colonies / Ames test TA100 revertant colonies / Ames test TA102 revertant colonies / Ames test TA1535 revertant colonies / Ames test TA1537 revertant colonies: absence of metabolic activation
Description: The mutagenic capacity of the compounds was determined from a 2 × 10^9 CFU/mL culture in Oxoid No. 2 medium in the exponential phase of Salmonella typhimurium strains TA98, T100, T102, TA1535, and TA1537 (hisD3052, histidine-dependent). Five serial dilutions to the third in DMSO were evaluated, starting from the maximum non-toxic dose estimated from the results of the toxicity test carried out initially. Positive controls were performed with 4-nitro-o-phenylenediamine (20 µg/plate) in the case of mutagenicity without activation. DMSO (50 µL/plate) and phenotype control (resistance to ampicillin, tetracycline, crystal violet, and sensitive UV light) were used as negative control. Compounds were incubated for 1 h at 37 °C in 2 mL of an agar solution containing 200 µL of histidine solution [(0.5 mM)/biotin (0.5 mM)]. It was then grown on glucose minimal agar for 48 h at 37 °C. When the effect of the metabolization on the compounds was studied, the S9 fraction (Gibco™, Thermo Fisher Scientific, Grand Island, NY, US) […] and expressed as the mean of duplicates ± standard deviation. The product was considered mutagenic when the number of revertant colonies doubled that of the negative control in at least two consecutive doses. The preparation of the bacterial suspension, the dissolution of the S9 fraction, the product, and the first part of the test (until the tubes with all the solutions were transferred to the stove for incubation) was carried out under sterile conditions, in a laboratory laminar flow and with sterile material (autoclave at 121 °C for 20 min or maintaining the manufacturer’s sterility). The addition of the histidine/biotin solution and the seeding of the plates were carried out under an upward air current generated by a burner.

Leishmania infantum = tested on: Leishmania infantum; design: method as in earlier work; details: promastigotes; read-out: In vitro anti-Leishmania infantum (visceral) activity (IC50); cited from earlier work

## O=C(/C=C/C=C/c1ccco1)/C=C/C=C/c1ccco1 [Compound 793]
[1]
  IC50: 36 µM
Zebrafish embryos; 96 h exposure
  Teratogenicity in zebrafish (LD50 ± SD): 22 µM and 22 ± 5 µM
Zebrafish embryos; zebrafish, in vivo
  Selectivity: zebrafish LD50 versus IC50 in the parasite: four
T. brucei
  IC50: 17 µM
CD1 and Balb/c mice
  Signs of acute toxicity (Irwin test, body mass): did not show signs of acute toxicity
[2]
  LD50 at 14 days: 2000 mg/kg
[3]
  Ames test (mutagenicity): NO
[3]; 6 μg/plate
  Ames test TA98 revertant colonies: 5±2
  Ames test TA100 revertant colonies: 89±3
  Ames test TA102 revertant colonies: 171±1
  Ames test TA1535 revertant colonies: 8±1
  Ames test TA1537 revertant colonies: 16 ± 1
[3]; 18 μg/plate
  Ames test TA98 revertant colonies: 9±3
  Ames test TA100 revertant colonies: 76±5
  Ames test TA102 revertant colonies: 176±1
  Ames test TA1535 revertant colonies: 12±1
  Ames test TA1537 revertant colonies: 18±1
[3]; 55 μg/plate
  Ames test TA98 revertant colonies: 3±1
  Ames test TA100 revertant colonies: 74±6
  Ames test TA102 revertant colonies: 194±3
  Ames test TA1535 revertant colonies: 14± 3
  Ames test TA1537 revertant colonies: 24± 4
[3]; 166 μg/plate
  Ames test TA98 revertant colonies: 3 ± 1
  Ames test TA100 revertant colonies: 58±3
  Ames test TA102 revertant colonies: 203±2
  Ames test TA1535 revertant colonies: 18±1
  Ames test TA1537 revertant colonies: 28± 3
[3]; 500 μg/plate
  Ames test TA98 revertant colonies: 5±1
  Ames test TA100 revertant colonies: 69±1
  Ames test TA102 revertant colonies: 222±6
  Ames test TA1535 revertant colonies: 20±1
  Ames test TA1537 revertant colonies: 30 ± 3
Leishmania infantum
  IC50: 31 µM
